Data published in patent US12226395B2, “Composition for preventing or treating neurodegenerative diseases, containing diterpene-based compound” (KOREA RESEARCH INSTITUTE OF BIOSCIENCE AND BIOTECHNOLOGY, priority 2017, dated 2025).
Where two headings read alike, the source gives them in different places.

Key:
Format in all cases: cell-based
Nurr1 [1] = molecular target: T1, Nurr1 (Homo sapiens, UniProt P43354); assay: Nurr1 activity, luciferase reporter analysis in transfected BE(2)C cells; conditions: for Nurr1 activity (luciferase), multiple of 0.1% DMSO control: BE(2)C cells, 20 hours; for Nurr1 activation (in words): no concentration stated
T1 construct: 3 types of plasmid DNA, including DNA containing Nurr1-LBD and DNA with β-galactosidase, were transfected into BE(2)C cells; expressed in transfected cells; host or cells: BE(2)C cells
Text: As in Example 2, Nurr1 activity according to the concentration of the diterpene isolated from the extract of Daphne genkwa was confirmed through luciferase analysis.
Specifically, after synthesizing a vector in which the gene having the nucleotide sequence (5′-CTCGGAGGACAGTACTCCG-3 SEQ ID NO:1) to which the GLA4 gene can bind is repeated 8 times to the reporter gene, luciferase, is synthesized, 3 types of plasmid DNA, including DNA containing Nurr1-LBD and DNA with β-galactosidase, were transfected into BE(2)C cells. After 6 hours, the compounds 1 to 10 separated in Example 2 were treated according to the concentrations in Table 1 below. The cells thus treated were cultured in a 5% carbon dioxide incubator at 37° C. for 20 hours, and then luciferase analysis was performed. As a control, 0.1% DMSO was used, and at this time, the activity was increased by multiple, and Amodiaquine was used as a positive control.

Nurr1 [2] = molecular target: T1, Nurr1; assay: as above
[3] = tested on: nitric oxide production in microglia BV-2 cells; assay: Inhibition of nitric oxide production in LPS-treated microglia BV-2 cells (Griess reagent); conditions: for Inhibition of nitric oxide production (in words): microglia BV-2 cells
Text: The death of cranial nerve cells due to an inflammatory reaction in a microglia cell has been reported as one of the main causes of degenerative brain diseases such as dementia and Parkinson's disease. (Sarkar S et al., Neurotoxicology, 44, 250-262 (2014); Bower J H et al., Neurology, 67, 494-496 (2006)). Accordingly, the inhibition activity on nitric oxide production, a representative inflammatory factor, was investigated for the compounds isolated from Example 2 in a microglia. Specifically, microglia BV-2 cells were put into a 96-well plate at 5×10^4 cells/well, and cultured for 2 days, followed by incubation with LPS ([…]) for 24 hours with the compound isolated in Example 2 above. The culture supernatant was measured for absorbance at 540 nm using the Griess reagent to quantify nitrite to investigate the amount of nitric oxide production. Minocyline was used as a positive control.

[4] = BV-2 cells, LPS 24 hours, nitrite by Griess reagent, read-out: IC50, inhibition of nitric oxide production (Table 5)

T1 sequence (P43354 360-595 limits assumed): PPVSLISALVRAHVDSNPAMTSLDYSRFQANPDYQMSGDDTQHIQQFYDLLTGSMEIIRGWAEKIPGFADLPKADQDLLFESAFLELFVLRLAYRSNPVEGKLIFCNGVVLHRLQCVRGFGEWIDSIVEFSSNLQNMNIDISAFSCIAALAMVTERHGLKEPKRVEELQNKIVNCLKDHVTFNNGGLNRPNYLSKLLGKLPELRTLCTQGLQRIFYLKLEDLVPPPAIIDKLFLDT

| Compound | Nurr1 activity (luciferase), multiple of 0.1% DMSO control (Nurr1 [1]; High concentration = 1 μM (Table 1)) | Nurr1 activity (luciferase), multiple of 0.1% DMSO control (Nurr1 [1]; Low concentration = 0.01 μM (Table 1)) | Nurr1 activity (luciferase), multiple of 0.1% DMSO control (Nurr1 [1]; Mid concentration = 0.1 μM (Table 1)) | Nurr1 activation (in words) (Nurr1 [1]) | Nurr1 activation (in words) (Nurr1 [2]; 0.01 μM) | IC50 ([3]; Mus musculus, BV-2 cells, LPS 24 hours, nitrite by Griess reagent, read-out: IC50, inhibition of nitric oxide production (Table 4)) [µM] | Inhibition of nitric oxide production (in words) [3] | Nurr1 activation (in words) (Nurr1 [2]; 0.003 μM) | Nurr1 activity (Table 3), relative to control treatment (Nurr1 [2]; 0.003 μM) | Nurr1 activity (Table 3), relative to control treatment (Nurr1 [2]; 0.01 μM) | Nurr1 activation (in words) (Nurr1 [2]; 0.03 μM) | Nurr1 activity (Table 3), relative to control treatment (Nurr1 [2]; 0.03 μM) | Nurr1 activity (Table 3), relative to control treatment (Nurr1 [2]; 0.1 μM) | Nurr1 activity (Table 3), relative to control treatment (Nurr1 [2]; 0.3 μM) | Nurr1 activity (Table 3), relative to control treatment (Nurr1 [2]; 1 μM) | IC50 [3, 4] [µM] | IC50 ([3]; Mus musculus, BV-2, 24 h, read-out: IC50, inhibition of nitric oxide production (Table 5)) [µM] |
| --- | --- | --- | --- | --- | --- | --- | --- | --- | --- | --- | --- | --- | --- | --- | --- | --- | --- |
| C=C(C)[C@@]12O[C@@]3(c4ccccc4)O[C@@H]1C1[C@@H]4O[C@]4(CO)[C@@H](O)[C@]4(O)C(=O)C(C)=CC4[C@@]1(O3)[C@H](C)[C@H]2OC(=O)c1ccccc1 (stereo partly drawn) [Formula 2, (2S,3aR,3cS,4aR,5S,5aS,8bR,9R,10R,10aS)-5,5a-dihydroxy-4a-(hydroxymethyl)-7,9-dimethyl-6-oxo-2-phenyl-10a-(prop-1-en-2-yl)-3a,3b,3c,4a,5,5a,8a,9,10,10a-decahydro-6H-2,8b-epoxyoxireno[2″,3″:6′,7′]azuleno[5′,4′:3,4]benzo[1,2-d][1,3]dioxol-10-yl benzoate] | 1.9 | 2.1 | 2.2 | better effect of increasing Nurr1 activity | excellent effect of Nurr1 activity | 0.06 ± 0.02 | superior inhibition activity on nitric oxide production | – | – | – | – | – | – | – | – | – | – |
| C=C(C)[C@@]12O[C@@]3(/C=C/C=C/CCCCC)O[C@@H]1[C@@H]1[C@@H]4O[C@]4(CO)[C@@H](O)[C@]4(O)C(=O)C(C)=C[C@H]4[C@@]1(O3)[C@H](C)[C@H]2OC(C)=O [compound 13, yuanhuadine] | – | – | – | better effect of increasing Nurr1 activity | – | – | – | activated Nurr1 | 1.23 ± 0.09 | 1.35 ± 0.28 | significantly activates Nurr1 | *1.47 ± 0.17 | *1.42 ± 0.14 | *1.65 ± 0.2 | **1.47 ± 0.02 | 1.8 | – |
| CCC/C=C/C=C/C=C/C(=O)O[C@@H]1[C@@H](C)[C@@]2(O)C(C=C(CO)C[C@]3(O)C(=O)C(C)=CC23)C2C(C)(C)[C@@]21OC(C)=O (stereo partly drawn) [compound 16, (4aR,7bS,8R,9R,9aS)-9a-acetoxy-4a,7b-dihydroxy-3-(hydroxymethyl)-1,1,6,8-tetramethyl-5-oxo-1a,1b,4,4a,5,7a,7b,8,9,9a-decahydro-1H-cyclopropa[3,4]benzo[1,2-e]azulen-9-yl (2E,4E,6E)-deca-2,4,6-trienoate] | – | – | – | better effect of increasing Nurr1 activity | – | – | – | – | – | – | significantly activates Nurr1 | *1.42 ± 0.15 | *1.68 ± 0.43 | *1.82 ± 0.51 | **1.53 ± 0.07 | – | 1.78 |
| yuanhuatine [compound 14] | – | – | – | better effect of increasing Nurr1 activity | – | – | better inhibition activity on nitric oxide production | activated Nurr1 | 1.03 ± 0.15 | 0.94 ± 0.04 | significantly activates Nurr1 | *1.63 ± 0.18 | **1.68 ± 0.11 | **1.62 ± 0.11 | *1.67 ± 0.32 | 1.03 | – |
